# According to patent US9198896B2 (priority 2006, dated 2015):
# “Also recorded” adds a separate entry of the source. Where two headings read alike, the source gives them in different places. Marks after values point to notes of the source that are not given here.
# Tests used:
# [1] = for Blood cells, remarks: dog and bitch
# Excerpt: Hemoglobin was estimated by reacting the blood sample with Drabkin's reagent to convert it to cyanmethemoglobin and measuring the absorbance at 540 nm. Urea was estimated by reacting it with hot acidic diacetylmonoxime in the presence of semicarbarzide and measuring the rose-purple color at 525 nm. Glucose was estimated by glucose oxidase method in the presence of peroxidase and measuring the absorbance of the colored complex of hydroxybenzoate and 4-aminophenazone at 510 nm. Creatinine was measured by reacting it with alkaline picrate and measuring the absorbance of the red-colored complex at 520 nm. Alkaline phosphatase was assayed by its ability to convert phenyl phosphate to inorganic phosphate and phenol. The later reacts with 4-aminoantipyrine to form an orange-red-colored complex, which was measured at 510 nm. Aspartate transaminase was measured by reacting the reaction product oxaloacetate (from the substrate 1-aspartic acid) with 2,4-dinitrophenyl hydrazine. The hydrazone thus formed gives a characteristic brown color when placed in an alkaline medium and was measured at 505 nm. Alanine transaminase was assayed similarly by 2,4-dinitrophenylhydrazine-alkali color reaction; the substrate and products are 1-alanine and pyruvate respectively.
# Long-term toxicity test with non-rodents (dog and bitch). Total of 6 animals (4 dogs and 2 bitches) were used for this experiment. The animals were 3-4 months old. Three different modes of treatment were used; two animals received the formulation orally, the other two by intravenous injection and the other two by subcutaneous injection. The total period of treatment was for 4 weeks (5 days per week).
# Dogs. For biochemical analysis, blood samples from each individual animal were collected and processed similarly to that of rats. The samples were collected just before the treatment commenced, in mid-phase of the treatment and 7 days after completion of the treatment. The samples were analyzed for the activities of several enzymes and metabolite contents as per the methods described in the respective assay kit and are briefly mentioned before. Hemoglobin estimation and cell count were done with an uncoagulated sample.
# However, subcutaneous injections appeared to be painful. The biochemical tests and some hematological studies were performed with blood of the animals, the results of which are presented in the Tables.
# [2] = Histological studies with mice; format: in vivo; settings: oral 0.5 gm/kg once a day for 10 weeks
# Excerpt: After end of the treatment, the mice were killed, and several organs were excised and processed for histological studies. Bone marrow cells were taken from the marrow cavity of the femur bone.
# Histological studies with mice: Histological studies were done with several organs of mice, and the results are presented in FIG. 1.
# [3] = Teratogenicity study; format: in vivo, mice; settings: treatment (oral and intravenous) from conception for 3 weeks
# Protocol: Teratogenicity: For this test, mating was performed between mice as mentioned above in the case of fertility studies. […] But, as soon as they conceived, as indicated by vaginal plug formation, the treatment (oral and intravenous) started and continued for 3 weeks in a similar fashion for chronic toxicity studies. […] These litters also grew up healthy with no signs of abnormality. Healthy litters were born again when mating was performed among these animals.
# [4] = test system: EAC cells; assay: Increase in life span study of EAC cell-inoculated mice; format: in vivo; settings: 14 days from day 3
# Protocol: Increase in life span study. For increase in life span study (ILS), testing was evaluated by calculating the median survival time (MST) of the treated (T) and control (C) groups and expressed as ILS value [(T/C−1)×100].
# The treatment started from day 3. The amount of each compound indicated in the parentheses is the amount administered per kg body weight per day.
# The day on which 10^5 EAC cells were inoculated into each mouse was considered as day 0. The treatment started from day 3. […] 15 animals received a particular mode of treatment. Control group received only normal saline. […] Each set of experiment was repeated 4 times.
# [5] = test system: EAC cells; assay: Increase in body weight of EAC cell-inoculated mice; format: in vivo; settings: Table 10
# Protocol: Increase in body weight: For this experiment, mice were weighed periodically during and after the therapy. The results are expressed as percentage increase in the body weight using the following relationship: percent increase equals
# Ehrlich ascites carcinoma bearing mice were treated intraperitonially with different drug combinations in normal saline to observe their effect on body weight (table 10) and life span (table 11). Mice in the control group were similarly treated intraperitonially only with normal saline.
# The day on which 10^5 EAC cells were inoculated into each mouse was considered as day 0. The treatment started from day 3. […] 6 animals received a particular mode of treatment. Control group received only normal saline. […] Each set of experiment was repeated 4 times.
# [6] = both, rat, in vivo, 6 weeks
# [7] = test system: EAC cells; assay: Increase in body weight of EAC cell-inoculated mice; format: in vivo
# [8] = test system: EAC cells; assay: Tumor growth inhibition study; settings: for % of cells present in respect of the control / No. of EAC cells (in million) / Volume of packed cells: day 3 to day 16
# Protocol: Tumor growth inhibition study: For this study, the total number of EAC cells was counted. The ascites fluid containing cells were quantitatively removed from peritoneal cavity of two mice for a particular drug combination. The cavity was further washed twice with a fixed volume of 0.9% NaCl. The washing and the ascites fluid containing the cells were pooled and centrifuged at 2000×g for 5 min. The packed cell volumes were noted. A fixed amount of aliquot from the packed cells was appropriately diluted, and the number of cells was counted in a hemocytometer. Averages (X^−±SEM) were made of these two parameters, and percentage inhibitions [(1−T/C)×100] were calculated for each dose of different test combinations.
# [9] = Table 7, MG 30 mg/kg/day ip 0.5 ml
# [10] = Table 7, MG 100 mg/kg/day ip 0.5 ml
# [11] = Table 11, MG 30 mg/kg/day ip 0.25 ml
# [12] = Table 11, MG 100 mg/kg/day ip 0.25 ml
structure (smiles),measurement,setting,value
CC(=O)C=O [methylglyoxal],"Blood cells, remarks",[1]; After treatment,Mild hypochromia; also recorded: No abnormal cells
same,"Blood cells, remarks",[1]; Mid-phase treatment,Mild hypochromia; also recorded: No abnormal cells
same,Basophils,"[1]; dog, in vivo",0%
same,general physical conditions and behavioral pattern vs control,"[1]; dog, long-term treatment",no abnormalities
same,death,"[1]; dogs, during and after the treatment (90 days)",no death occurred
same,"histological examination of organs (liver, kidney, spleen, duodenum, bone marrow)",[2],none of the organs tested by histological examination had any adverse effect
same,outcome of pregnancy (teratogenicity),[3],gave birth to healthy litters
same,60 day survivors/15 animals,[4]; [9],1
same,ILS value,[4]; [9],34%
same,Median survival time,[4]; [9],26 days
same,60 day survivors/15 animals,[4]; [10],10
same,ILS value,[4]; [10],Cure
same,Median survival time,[4]; [10],Indefinite
same,60 day survivors/15 animals,[4]; [11],1
same,ILS value (Median survival time of (Treated/Control − 1) × 100]),[4]; [11],35%
same,Median survival time,[4]; [11],27 days
same,60 day survivors/15 animals,[4]; [12],11
same,ILS value (Median survival time of (Treated/Control − 1) × 100]),[4]; [12],Cure
same,Median survival time,[4]; [12],Indefinite
same,Percent increase in body weight,"[5]; MG 30 mg/kg/day ip, Day 15",15.8 ± 1.3%
same,Percent increase in body weight,"[5]; MG 30 mg/kg/day ip, Day 25",30.0 ± 2.9%
same,Percent increase in body weight,"[5]; MG 30 mg/kg/day ip, Day 35, 2 animals survived out of 6",38.8 ± 3.0^b %
same,Percent increase in body weight,"[5]; MG 100 mg/kg body weight/day ip, Day 15",8.0 ± 0.7%
same,Percent increase in body weight,"[5]; MG 100 mg/kg body weight/day ip, Day 20",10.0 ± 1.2%
same,Percent increase in body weight,"[5]; MG 100 mg/kg body weight/day ip, Day 25",11.0 ± 1.0%
same,"healthy litters per female, on an average",[6],5
same,Percent increase in body weight,"[7]; Table 8, MG 30 mg/kg/day, Day 15",15.8 ± 1.3%
same,Percent increase in body weight,"[7]; Table 8, MG 30 mg/kg/day, Day 20",19.0 ± 1.6%
same,Percent increase in body weight,"[7]; Table 8, MG 30 mg/kg/day, Day 25",30.0 ± 2.9%
same,Percent increase in body weight,"[7]; Table 8, MG 30 mg/kg/day, Day 30",32.9 ± 3.0%
same,Percent increase in body weight,"[7]; Table 8, MG 30 mg/kg/day, Day 35, 2 animals survived out of 6",38.8 ± 3.0^b %
same,Percent increase in body weight,"[7]; Table 8, MG 100 mg/kg/day, Day 15",8.0 ± 0.7%
same,Percent increase in body weight,"[7]; Table 8, MG 100 mg/kg/day, Day 20",10.0 ± 1.2%
same,Percent increase in body weight,"[7]; Table 8, MG 100 mg/kg/day, Day 25",11.0 ± 1.0%
same,Percent increase in body weight,"[7]; Table 8, MG 100 mg/kg/day, Day 30",11.2 ± 0.9%
same,Percent increase in body weight,"[7]; Table 8, MG 100 mg/kg/day, Day 35",11.2 ± 1.1%
same,Percent increase in body weight,"[7]; Table 10, MG 30 mg/kg/day ip, Day 20",19.0 ± 1.6%
same,Percent increase in body weight,"[7]; Table 10, MG 30 mg/kg/day ip, Day 30",32.9 ± 3.0%
same,Percent increase in body weight,"[7]; Table 10, MG 100 mg/kg body weight/day ip, Day 30",11.2 ± 0.9%
same,Percent increase in body weight,"[7]; Table 10, MG 100 mg/kg body weight/day ip, Day 35",11.2 ± 1.1%
same,effect on cell proliferation in the peritoneal cavity,"[8]; EAC cell-inoculated mice, doses of Table 9",significant inhibitory effect
same,% of cells present in respect of the control,"[8]; MG 30 mg/kg/day, Day 10",5%
same,No. of EAC cells (in million),"[8]; MG 30 mg/kg/day, Day 10",15 ± 2 million
same,% of cells present in respect of the control,"[8]; MG 30 mg/kg/day, Day 14",13%
same,No. of EAC cells (in million),"[8]; MG 30 mg/kg/day, Day 14",230 ± 10 million
same,Volume of packed cells,"[8]; MG 30 mg/kg/day, Day 14",0.26 ± 0.02 mL
same,% of cells present in respect of the control,"[8]; MG 30 mg/kg/day, Day 18",23%
same,No. of EAC cells (in million),"[8]; MG 30 mg/kg/day, Day 18",820 ± 30 million
same,Volume of packed cells,"[8]; MG 30 mg/kg/day, Day 18",0.96 ± 0.05 mL
same,% of cells present in respect of the control,"[8]; MG 100 mg/kg/day, Day 10",0%
same,% of cells present in respect of the control,"[8]; MG 100 mg/kg/day, Day 14",0%
same,% of cells present in respect of the control,"[8]; MG 100 mg/kg/day, Day 18",0%
